Laboratory results as given in patent publication EP0527889B1, “QUINOLIZINONE TYPE COMPOUNDS” (priority 1990, dated 1991).
Where a name gives a salt, the structure may show the parent alone.

Assays:
Assay in all cases: In vitro antibacterial activity, MIC by agar dilution
Assay type in all cases: cell-based
Conditions in all cases: BHI agar, 35-37°C, 20-24 hours, unit assumed
[1] = system: Staphylococcus aureus 1775
Description: (§1) Each plate was inoculated with 1:100 (or 1:10 for slow growing strains, primarily Micrococcus and Streptococcus) dilutions of up to 32 different microorganisms, using a Steers replicator block calibrated to deliver approximately 10^4 colony forming units (CFUs). The inoculated plates were incubated at from about 35°C to about 37°C for approximately 20-24 hours. In addition, a control plate using BHI agar containing no test compound was prepared and incubated at the beginning and at the end of each test. Ciprofloxacin was used as the control antibiotic.
(§2) The MIC was defined as the lowest concentration of test compound yielding no growth (a slight haze or sparsely isolated colonies at the inoculum spot) as compared to the growth control containing no test compound.

Pseudomonas cepacia 296I = system: Pseudomonas cepacia 296I
Description: as §1, §2

[2] = system: Streptococcus bovis A5169
Description: as §1, §2

Escherichia coli DC-2 = system: Escherichia coli DC-2
Description: as §1, §2

[3] = system: Pseudomonas aeruginosa BMH10
Description: as §1, §2

[4] = system: Staphylococcus aureus NCTC 10649
Description: as §1, §2

[5] = system: Providencia stuartii CMX 640
Description: as §1, §2

[6] = system: Acinetobacter calcoaceticus CMX 669
Description: as §1, §2

[7] = system: Micrococcus luteus ATCC 9341
Description: as §1, §2

[8] = system: Streptococcus pyrogenes EES61
Description: as §1, §2

[9] = system: Pseudomonas aeruginosa 5263
Description: as §1, §2

[10] = system: Enterobacter aerogenes ATCC 13048
Description: as §1, §2

[11] = system: Pseudomonas aeruginosa K799/61
Description: as §1, §2

[12] = system: Staphylococcus aureus A5177
Description: as §1, §2

[13] = system: Streptococcus pyrogenes CONST
Description: as §1, §2

Escherichia coli H560 = system: Escherichia coli H560
Description: as §1, §2

Escherichia coli KNK 437 = system: Escherichia coli KNK 437
Description: as §1, §2

[14] = system: Micrococcus luteus ATCC 4698
Description: as §1, §2

[15] = system: Enterococcus faecium ATCC 8043
Description: as §1, §2

[16] = system: Streptococcus agalactaciae CMX 508
Description: as §1, §2

[17] = system: Staphylococcus aureus ATCC 6538P
Description: as §1, §2

[18] = system: Staphylococcus epidermidis 3519
Description: as §1, §2

Escherichia coli JUHL = system: Escherichia coli JUHL
Description: as §1, §2

[19] = system: Pseudomonas aeruginosa K799/WT
Description: as §1, §2

[20] = system: Staphylococcus aureus A-5278
Description: as §1, §2

[21] = system: Pseudomonas aeruginosa 2862
Description: as §1, §2

[22] = system: Pseudomonas aeruginosa A5007
Description: as §1, §2

[23] = system: Klebsiella pneumoniae ATCC 8045
Description: as §1, §2

Escherichia coli SS = system: Escherichia coli SS
Description: as §1, §2

[24] = system: Streptococcus pyrogenes 2548 INDUC
Description: as §1, §2

[25] = system: Staphylococcus aureus CMX 553
Description: as §1, §2

[26] = system: Staphylococcus aureus 642A
Description: as §1, §2

NC1CCN(c2nc3c(-c4c(F)c(F)c(F)c(F)c4F)cc(C(=O)O)c(=O)n3cc2F)C1 (stereo not shown) [Example 172, 2-(3-Aminopyrrolidin-1-yl)-3-fluoro-9-(2,3,4,5,6-pentafluorophenyl)-6H-6-oxopyrido[1,2-a]pyrimidine-7-carboxylic acid hydrochloride salt]
MIC values [1]: > 100 µg/mL
MIC values (Pseudomonas cepacia 296I): > 100 µg/mL
MIC values [2]: > 100 µg/mL
MIC values (Escherichia coli DC-2): > 100 µg/mL
MIC values [3]: 50 µg/mL
MIC values [4]: 50 µg/mL
MIC values [5]: > 100 µg/mL
MIC values [6]: 25 µg/mL
MIC values [7]: > 100 µg/mL
MIC values [8]: > 100 µg/mL
MIC values [9]: > 100 µg/mL
MIC values [10]: 6.2 µg/mL
MIC values [11]: 6.2 µg/mL
MIC values [12]: 100 µg/mL
MIC values [13]: > 100 µg/mL
MIC values (Escherichia coli H560): 6.2 µg/mL
MIC values (Escherichia coli KNK 437): > 100 µg/mL
MIC values [14]: > 100 µg/mL
MIC values [15]: > 100 µg/mL
MIC values [16]: > 100 µg/mL
MIC values [17]: 50 µg/mL
MIC values [18]: 50 µg/mL
MIC values (Escherichia coli JUHL): 6.2 µg/mL
MIC values [19]: 100 µg/mL
MIC values [20]: 50 µg/mL
MIC values [21]: > 100 µg/mL
MIC values [22]: 50 µg/mL
MIC values [23]: 3.1 µg/mL
MIC values (Escherichia coli SS): 0.39 µg/mL
MIC values [24]: > 100 µg/mL
MIC values [25]: > 100 µg/mL
MIC values [26]: 100 µg/mL

C[C@H](N)C(=O)N[C@@H](C)C(=O)N[C@H]1C[C@H](C)N(c2nc3c(-c4ccc(F)cc4F)cc(C(=O)O)c(=O)n3cc2F)C1 [Example 173, 2-((2S, 4S)-4-(N-(S)-Alanyl-(S)-alanyl)amino-2-methylpyrrolidin-1-yl)-9-(2,4-difluorophenyl)-3-fluoro-6H-6-oxopyrido[1,2-a]pyrimidine-7-carboxylic acid hydrochloride]
MIC values [1]: > 100 µg/mL
MIC values (Pseudomonas cepacia 296I): > 100 µg/mL
MIC values [2]: 25 µg/mL
MIC values (Escherichia coli DC-2): > 100 µg/mL
MIC values [3]: 50 µg/mL
MIC values [4]: 1.56 µg/mL
MIC values [5]: > 100 µg/mL
MIC values [6]: 25 µg/mL
MIC values [7]: > 100 µg/mL
MIC values [8]: 12.5 µg/mL
MIC values [9]: > 100 µg/mL
MIC values [10]: 25 µg/mL
MIC values [11]: 3.1 µg/mL
MIC values [12]: 6.2 µg/mL
MIC values [13]: 12.5 µg/mL
MIC values (Escherichia coli H560): 3.1 µg/mL
MIC values (Escherichia coli KNK 437): 100 µg/mL
MIC values [14]: 100 µg/mL
MIC values [15]: 50 µg/mL
MIC values [16]: 12.5 µg/mL
MIC values [17]: 1.56 µg/mL
MIC values [18]: 6.2 µg/mL
MIC values (Escherichia coli JUHL): 6.2 µg/mL
MIC values [19]: 100 µg/mL
MIC values [20]: 6.2 µg/mL
MIC values [21]: > 100 µg/mL
MIC values [22]: 50 µg/mL
MIC values [23]: 3.1 µg/mL
MIC values (Escherichia coli SS): 0.1 µg/mL
MIC values [24]: 6.2 µg/mL
MIC values [25]: 12.5 µg/mL
MIC values [26]: 12.5 µg/mL
